Data taken from patent US20060216333A1, “Methods related to the treatment of mucosal associated conditions” (priority 2003, published 2006).

Key:
MCP-1 = assay: Serum and vaginal tissue MCP-1 after intravaginal dosing of rats (ELISA); format: in vivo, rat; conditions: cotton pellet device removed after 2 hours; for MCP-1 Tissue: vaginal tissue, per 200 mg
Method: (§1) In the examples below the serum and intravaginal cytokine data were obtained using the following general test method.
(§2) Rats were acclimated to collars (Lomir Biomedical, Malone, N.Y.) around the neck on two consecutive days prior to actual dosing. Rats were collared to prevent removal of the device and ingestion of the drug. Animals were then dosed intravaginally with a removable device or with […] of cream. Single dosed rats received one intravaginal dose with samples collected at various times following dosing. Blood was collected by cardiac puncture. Blood was allowed to clot briefly at room temperature and serum was separated from the clot via centrifugation. The serum was stored at −20° C. until it was analyzed for cytokine concentrations.
(§3) Following blood collection, the rats were euthanized and their vaginal tract, including the cervix, was then removed and the tissue was weighed, placed in a sealed 1.8 mL cryovial and flash frozen in liquid nitrogen. The frozen vaginal tissue sample was then suspended in 1.0 mL of RPMI medium (Celox, St. Paul, Minn.) containing 10% fetal bovine serum (Atlas, Fort Collins, Colo.), 2 mM L-glutamine, penicillin/streptomycin and 2-mercaptoethanol (RPMI complete) combined with a protease inhibitor cocktail set III (Calbiochem, San Diego, Calif.). The tissue was homogenized using a Tissue Tearor (Biospec Products, Bartlesville, Okla.) for approximately one minute. The tissue suspension was then centrifuged at 2000 rpm for 10 minutes under refrigeration to pellet the debris, and the supernatant collected and stored at −20° C. until analyzed for cytokine concentrations.
(§4) ELISA kits for rat TNF were purchased from BD PharMingen (San Diego, Calif.) and the rat MCP-1 ELISA kits were purchased from BioSource Intl. (Camarillo, Calif.).
(§5) Both kits were performed according to manufacturer's specifications. Results for both TNF and MCP-1 are expressed in pg/mL and are normalized per 200 mg of tissue. […] “Post dosing” means after treatment initiation. For example, if a device was inserted a time 0 hours and removed at 2 hours and cytokines were assayed at 4 hours, then the cytokines were assayed at 4 hours post dosing.

TNF = assay: Serum and vaginal tissue TNF after intravaginal dosing of rats (ELISA); format: in vivo, rat; conditions: cotton pellet device removed after 2 hours; for TNF Tissue: vaginal tissue, per 200 mg
Method: as §1, §2, §3, §4, §5

[1] = 4 hours post dosing, 1% in 50/50 ISA/IPM, Example 6
[2] = 2 hr post dose, 5% in 50/50 ISA/IPM, Example 7
[3] = 4 hr post dose, 5% in 50/50 ISA/IPM, Example 7
[4] = 6 hr post dose, 5% in 50/50 ISA/IPM, Example 7

Compound	MCP-1 Serum (MCP-1; [1])	MCP-1 Tissue (MCP-1; [1])	TNF Serum (TNF; [1])	TNF Tissue (TNF; [1])	MCP-1 Serum (MCP-1; [2])	MCP-1 Serum (MCP-1; [3])	MCP-1 Serum (MCP-1; [4])	MCP-1 Tissue (MCP-1; [2])	MCP-1 Tissue (MCP-1; [3])	MCP-1 Tissue (MCP-1; [4])	TNF Serum (TNF; [2])	TNF Serum (TNF; [3])	TNF Serum (TNF; [4])	TNF Tissue (TNF; [2])	TNF Tissue (TNF; [3])	TNF Tissue (TNF; [4])
COCCc1nc2c(N)nc3ccccc3c2n1CCCCNS(C)(=O)=O [IRM 4, N-{4-[4-amino-2-(2-methoxyethyl)-1H-imidazo[4,5-c]quinolin-1-yl]butyl}methanesulfonamide]	105 pg/mL	713 pg/mL	0 pg/mL	109 pg/mL	–	–	–	–	–	–	–	–	–	–	–	–
CCOCc1nc2c(N)nc3ccccc3c2n1CCNC(=O)NC(C)C [IRM 7, N-{2-[4-amino-2-(ethoxymethyl)-1H-imidazo[4,5-c]quinolin-1-yl]ethyl}-N′-isopropylurea]	93 pg/mL	642 pg/mL	0 pg/mL	219 pg/mL	92 pg/mL	112 pg/mL	140 pg/mL	498 pg/mL	851 pg/mL	670 pg/mL	1 pg/mL	0 pg/mL	2 pg/mL	512 pg/mL	460 pg/mL	267 pg/mL
CCCCNC(=O)NCCCn1c(CCCC)nc2c(N)nc3ccccc3c21 [IRM 5]	108 pg/mL	958 pg/mL	1 pg/mL	358 pg/mL	–	–	–	–	–	–	–	–	–	–	–	–
CCOCc1nc2c(N)nc3ccccc3c2n1CCOCCNC(=O)Nc1ccccc1 [IRM 8, N-(2-{2-[4-amino-2-(ethoxymethyl)-1H-imidazo[4,5-c]quinolin-1-yl]ethoxy}ethyl)-N′-phenylurea]	82 pg/mL	331 pg/mL	0 pg/mL	294 pg/mL	–	–	–	–	–	–	–	–	–	–	–	–
